Assay results published in patent publication US9480758B2, “Diagnostic agents selective against metalloproteases” (BRACCO IMAGING S.P.A., priority 2008, dated 2016).
Like-named read-outs stand apart in the source and are kept apart here.

What was measured:
[1] = biological target: T1, MMP-12 (Homo sapiens, UniProt P39900); test: MMP inhibition assay, fluorogenic substrate FS-6; format: biochemical; conditions: MMP12 1 nM, inhibitor incubated 4 h at 25° C., substrate Mca-Lys-Pro-Leu-Gly-Leu-Dap(Dnp)-Ala-Arg-NH2 2 μM
T1 construct: purchased RDSystems
Experimental: (§1) As reported therein, the inhibitory activity of the compounds of the invention was evaluated on the known fluorogenic substrate (Mca-Lys-Pro-Leu-Gly-Leu-Dpa-Ala-Arg-NH2), shortly referred to as FS-6 (see, as a reference, U. Neumann, Analytical Biochem. 2004, 328, 166-173).
(§2) Recombinant human progelatinase A (pro-MMP-2) and B (pro-MMP-9) from transfected mouse myeloma cells, MMP-16 and MMP-14 catalytic domains were supplied by Prof. Gillian Murphy (Department of Oncology, University of Cambridge, UK). Pro-MMP-1, pro-MMP-8, pro-MMP-3 and pro-MMP-13 were purchased from Calbiochem, MMP-12 was furnished from RDSystems.
(§3) For assay measurements, the inhibitor stock solutions (DMSO, 100 mM) were further diluted, at 7 different concentrations (0.01 nM-300 μM) for each MMP in the fluorimetric assay buffer (FAB: Tris 50 mM, pH=7.5, NaCl 150 mM, CaCl2 10 mM, Brij 35 0.05% and DMSO 1%). Activated enzyme (final concentration 2.9 nM for MMP-2, 2.7 nM for MMP-9, 1.5 nM for MMP-8, 0.3 nM for MMP-13, 5 nM for MMP-3, 1 nM for MMP-14cd, 15 nM for MMP-16cd and 2.0 nM for MMP-1, 1 nM for MMP12) and inhibitor solutions were incubated in the assay buffer for 4 h at 25° C. After the addition of 200 μM solution of the fluorogenic substrate Mca-Arg-Pro-Lys-Pro-Val-Glu-Nva-Trp-Arg-Lys(Dnp)-NH2 (Sigma) for MMP-3 and Mca-Lys-Pro-Leu-Gly-Leu-Dap(Dnp)-Ala-Arg-NH2 (Bachem) (Neumann, U.; Kubota, H.; Frei, K.; Ganu, V.; Leppert, D. Anal. Biochem. 2004, 328, 166) for all the other enzymes in DMSO (final concentration 2 μM), the hydrolysis was monitored every 15 sec. for 20 min. recording the increase in fluorescence (λex=325 nm, λem=395 nm) using a Molecular Device SpectraMax Gemini XS plate reader. The assays were performed in triplicate in a total volume of 200 μl per well in 96-well microtitre plates (Corning, black, NBS). Control wells lack inhibitor. The MMP inhibition activity was expressed in relative fluorescent units (RFU). Percent of inhibition was calculated from control reactions without the inhibitor. IC50 was determined using the formula: Vi/Vo=1/(1+[I]/IC50), where Vi is the initial velocity of substrate cleavage in the presence of the inhibitor at concentration [I] and Vo is the initial velocity in the absence of the inhibitor. Results were analyzed using SoftMax Pro software and GraFit software.

[2] = biological target: T2, MMP-14 catalytic domain (Homo sapiens, UniProt P50281); test: MMP inhibition assay, fluorogenic substrate FS-6; format: biochemical; conditions: MMP-14cd 1 nM, inhibitor incubated 4 h at 25° C., substrate Mca-Lys-Pro-Leu-Gly-Leu-Dap(Dnp)-Ala-Arg-NH2 2 μM
T2 construct: MMP-16 and MMP-14 catalytic domains were supplied by Prof; Gillian Murphy; purchased supplied by Prof; Gillian Murphy (Department of Oncology, University of Cambridge, UK)
Experimental: as §1, §2, §3

[3] = biological target: T3, MMP-16 catalytic domain (Homo sapiens, UniProt P51512); test: MMP inhibition assay, fluorogenic substrate FS-6; format: biochemical; conditions: MMP-16cd 15 nM, inhibitor incubated 4 h at 25° C., substrate Mca-Lys-Pro-Leu-Gly-Leu-Dap(Dnp)-Ala-Arg-NH2 2 μM
T3 construct: MMP-16 and MMP-14 catalytic domains were supplied by Prof; Gillian Murphy; purchased supplied by Prof; Gillian Murphy (Department of Oncology, University of Cambridge, UK)
Experimental: as §1, §2, §3

[4] = biological target: T4, MMP-3 (Homo sapiens, UniProt P08254); test: MMP inhibition assay, fluorogenic substrate; format: biochemical; conditions: MMP-3 5 nM, inhibitor incubated 4 h at 25° C., substrate Mca-Arg-Pro-Lys-Pro-Val-Glu-Nva-Trp-Arg-Lys(Dnp)-NH2
T4 construct: purchased Calbiochem
Experimental: as §2
(§4) Pro-MMP-3 was activated with trypsin 5 μg/mL for 30 min at 37 C.° followed by soybean trypsin inhibitor (SBTI) 62 μg/mL.
as §3, with “The MMP inhibition activity was expressed in relative fluorescent units (RFU).” left out

[5] = biological target: T5, MMP-9 (Homo sapiens, UniProt P14780); test: MMP inhibition assay, fluorogenic substrate FS-6; format: biochemical; conditions: MMP-9 2.7 nM, inhibitor incubated 4 h at 25° C., substrate Mca-Lys-Pro-Leu-Gly-Leu-Dap(Dnp)-Ala-Arg-NH2 2 μM
T5 construct: purchased supplied by Prof; Gillian Murphy (Department of Oncology, University of Cambridge, UK); host or cells: transfected mouse myeloma cells
Experimental: as §1, §2, §4, §3

[6] = biological target: MMP-13 (Homo sapiens, UniProt P45452); test: MMP inhibition assay, fluorogenic substrate FS-6; format: biochemical; conditions: MMP-13 0.3 nM, inhibitor incubated 4 h at 25° C., substrate Mca-Lys-Pro-Leu-Gly-Leu-Dap(Dnp)-Ala-Arg-NH2 2 μM
Experimental: as §1, §2, §4, §3

[7] = biological target: T6, MMP-2 (Homo sapiens, UniProt P08253); test: MMP inhibition assay, fluorogenic substrate FS-6; format: biochemical; design: purchased supplied by Prof; Gillian Murphy (Department of Oncology, University of Cambridge, UK); host or cells: transfected mouse myeloma cells; conditions: activated pro-MMP-2 2.9 nM, inhibitor incubated 4 h at 25° C., substrate Mca-Lys-Pro-Leu-Gly-Leu-Dap(Dnp)-Ala-Arg-NH2 2 μM
T6 sequence (P08253 110-660): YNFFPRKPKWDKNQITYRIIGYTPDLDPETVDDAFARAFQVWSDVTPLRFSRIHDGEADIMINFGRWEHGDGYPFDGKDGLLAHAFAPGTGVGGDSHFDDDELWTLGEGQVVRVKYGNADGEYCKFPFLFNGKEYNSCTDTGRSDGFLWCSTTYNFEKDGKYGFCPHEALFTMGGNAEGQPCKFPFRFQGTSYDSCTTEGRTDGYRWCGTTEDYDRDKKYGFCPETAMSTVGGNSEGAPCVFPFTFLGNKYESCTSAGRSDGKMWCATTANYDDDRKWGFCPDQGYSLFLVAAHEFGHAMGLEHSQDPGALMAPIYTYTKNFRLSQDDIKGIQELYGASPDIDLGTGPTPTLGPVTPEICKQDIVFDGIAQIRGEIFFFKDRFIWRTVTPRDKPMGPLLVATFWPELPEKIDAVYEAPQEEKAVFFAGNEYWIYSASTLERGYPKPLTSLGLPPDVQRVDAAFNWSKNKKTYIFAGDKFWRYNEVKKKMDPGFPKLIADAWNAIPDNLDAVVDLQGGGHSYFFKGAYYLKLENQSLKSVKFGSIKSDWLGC
Experimental: as §1, §2, §4, §3

[8] = biological target: MMP-14 (Homo sapiens, UniProt P50281); conditions: isolated enzyme, fluorogenic substrate FS-1, literature value; cited from earlier work
[9] = biological target: T6, MMP-2; conditions: isolated enzyme, fluorogenic substrate FS-1, literature value; cited from earlier work
[10] = biological target: T7, MMP-8 (Homo sapiens, UniProt P22894); test: MMP inhibition assay, fluorogenic substrate FS-6; format: biochemical; conditions: MMP-8 1.5 nM, inhibitor incubated 4 h at 25° C., substrate Mca-Lys-Pro-Leu-Gly-Leu-Dap(Dnp)-Ala-Arg-NH2 2 μM
T7 construct: purchased Calbiochem
Experimental: as §1, §2, §4, §3

T5 sequence (P14780 107-707 limits assumed): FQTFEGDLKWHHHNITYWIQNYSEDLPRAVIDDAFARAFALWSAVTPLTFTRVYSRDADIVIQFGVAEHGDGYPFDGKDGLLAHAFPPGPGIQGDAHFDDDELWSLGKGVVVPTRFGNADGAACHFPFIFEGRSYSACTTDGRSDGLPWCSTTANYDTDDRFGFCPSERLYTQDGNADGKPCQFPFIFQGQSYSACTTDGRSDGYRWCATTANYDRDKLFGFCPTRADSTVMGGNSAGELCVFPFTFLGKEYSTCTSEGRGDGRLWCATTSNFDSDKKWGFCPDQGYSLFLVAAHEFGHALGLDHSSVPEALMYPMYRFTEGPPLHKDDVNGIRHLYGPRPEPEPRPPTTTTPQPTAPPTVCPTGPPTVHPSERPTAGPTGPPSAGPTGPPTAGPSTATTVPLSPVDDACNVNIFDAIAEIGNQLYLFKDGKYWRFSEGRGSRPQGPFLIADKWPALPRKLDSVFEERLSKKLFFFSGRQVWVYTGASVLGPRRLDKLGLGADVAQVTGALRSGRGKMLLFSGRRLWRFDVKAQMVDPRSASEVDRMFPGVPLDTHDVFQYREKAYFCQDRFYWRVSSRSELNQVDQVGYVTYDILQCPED
T1 sequence (P39900 106-470): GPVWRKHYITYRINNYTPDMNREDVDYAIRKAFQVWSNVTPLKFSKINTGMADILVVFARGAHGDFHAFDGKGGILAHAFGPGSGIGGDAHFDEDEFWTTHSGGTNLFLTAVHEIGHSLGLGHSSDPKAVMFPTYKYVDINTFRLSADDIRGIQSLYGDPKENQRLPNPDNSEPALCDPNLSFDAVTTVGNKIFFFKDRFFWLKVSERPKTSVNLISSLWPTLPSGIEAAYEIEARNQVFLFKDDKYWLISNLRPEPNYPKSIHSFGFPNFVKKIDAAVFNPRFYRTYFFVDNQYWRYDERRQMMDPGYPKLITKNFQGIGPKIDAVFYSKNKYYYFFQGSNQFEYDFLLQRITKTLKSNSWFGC
T3 sequence (P51512 120-292 limits assumed): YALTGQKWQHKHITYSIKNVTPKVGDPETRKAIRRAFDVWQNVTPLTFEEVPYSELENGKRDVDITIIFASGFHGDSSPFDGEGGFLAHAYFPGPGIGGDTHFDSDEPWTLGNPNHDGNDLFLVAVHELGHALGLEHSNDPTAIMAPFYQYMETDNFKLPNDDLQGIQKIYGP
T4 sequence (P08254 100-477): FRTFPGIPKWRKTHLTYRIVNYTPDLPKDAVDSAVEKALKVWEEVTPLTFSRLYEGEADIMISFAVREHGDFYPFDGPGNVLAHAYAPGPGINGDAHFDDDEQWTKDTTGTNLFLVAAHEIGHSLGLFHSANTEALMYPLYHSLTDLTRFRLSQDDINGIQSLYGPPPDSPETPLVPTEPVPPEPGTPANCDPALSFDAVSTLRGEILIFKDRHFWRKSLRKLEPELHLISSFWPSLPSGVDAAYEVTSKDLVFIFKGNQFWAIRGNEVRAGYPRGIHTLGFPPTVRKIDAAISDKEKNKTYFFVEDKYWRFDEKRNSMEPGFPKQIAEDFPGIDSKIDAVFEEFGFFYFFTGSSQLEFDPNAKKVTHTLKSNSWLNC
T7 sequence (P22894 101-467): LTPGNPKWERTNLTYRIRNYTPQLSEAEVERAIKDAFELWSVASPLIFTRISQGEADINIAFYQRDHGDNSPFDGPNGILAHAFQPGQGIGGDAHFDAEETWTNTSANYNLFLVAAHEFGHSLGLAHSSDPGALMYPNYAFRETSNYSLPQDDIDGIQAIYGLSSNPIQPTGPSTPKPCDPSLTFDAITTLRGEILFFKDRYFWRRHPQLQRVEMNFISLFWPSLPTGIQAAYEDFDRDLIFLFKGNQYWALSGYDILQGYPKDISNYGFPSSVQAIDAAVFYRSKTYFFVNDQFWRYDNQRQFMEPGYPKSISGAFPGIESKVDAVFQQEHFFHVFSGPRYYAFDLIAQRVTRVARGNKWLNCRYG

IC50 [1] [nM]	IC50 [2] [nM]	IC50 [3] [nM]	IC50 [4] [nM]	IC50 [5] [nM]	IC50 [6] [nM]	IC50 [7] [nM]	IC50 [10] [nM]	Compound	IC50 [8] [nM]	IC50 [9] [nM]
22 ± 4	1700 ± 305	1260 ± 59	1990 ± 90	187 ± 11	24.4 ± 2.5	47.9 ± 4.9		CCC(=O)N1CCN(CCOCCON([C@H](CCNC(=O)OCc2ccccc2)C(=O)NO)S(=O)(=O)c2ccc(-c3ccc(OC)cc3)cc2)CC1 [1k]		
					82 ± 13	56 ± 8		CC[N+]1=C(/C=C/C=C/C=C2/N(CCCCCC(=O)NCC[C@H](C(=O)NO)N(OC(C)C)S(=O)(=O)c3ccc(-c4ccc(OC)cc4)cc3)c3ccc4c(S(=O)(=O)O)cc(S(=O)(=O)O)cc4c3C2(C)C)C(C)(C)c2c1ccc1c(S(=O)(=O)[O-])cc(S(=O)(=O)O)cc21 [Compound 5]		
								CC(C)ON(C(CCNC(=O)OCc1ccccc1)C(=O)NO)S(=O)(=O)c1ccc(-c2ccccc2)cc1 (centres unmarked) [compound (5b)]	7.7	0.41
0.4 ± 0.05		10 ± 1	39 ± 3.3	1.7 ± 0.14			3.2 ± 0.2	COc1ccc(-c2ccc(S(=O)(=O)N(OCCOCCN3CCNCC3)[C@H](CCNC(=O)OCc3ccccc3)C(=O)NO)cc2)cc1 [1j]		
0.67 ± 0.06	67 ± 3.4	30 ± 2.3	53 ± 4.5	3.3 ± 0.1	0.17 ± 0.02	0.6 ± 0.06	6.5 ± 0.6	CC[N+]1=C(/C=C/C=C/C=C2/N(CCCCCC(=O)N3CCN(CCOCCON([C@H](CCNC(=O)OCc4ccccc4)C(=O)NO)S(=O)(=O)c4ccc(-c5ccc(OC)cc5)cc4)CC3)c3ccc4c(S(=O)(=O)O)cc(S(=O)(=O)O)cc4c3C2(C)C)C(C)(C)c2c1ccc1c(S(=O)(=O)[O-])cc(S(=O)(=O)O)cc21 [Compound 6b]		
					50 ± 4.3	73.5 ± 5.7		CC[N+]1=C(/C=C/C=C/C=C2\N(CCCCCC(=O)N3CCN(CCOCCON([C@H](CCNC(=O)OCc4ccccc4)C(=O)O)S(=O)(=O)c4ccc(-c5ccc(OC)cc5)cc4)CC3)c3ccc4c(S(=O)(=O)[O-])cc(S(=O)(=O)O)cc4c3C2(C)C)C(C)(C)c2c1ccc1c(S(=O)(=O)O)cc(S(=O)(=O)O)cc21 [Compound 6a]		
